Assay [1] deals with cGAS-STING, MyD88 and canonical NF-κB pathways in M2 BMDMs. The assay is described as follows: Western blotting of cGAS-STING, MyD88 and canonical NF-κB pathways. It is filed as cell-based, mouse. The conditions noted are these: excessive ER stress induction. The protocol: A western blot was performed as described in Example 1, to assess whether the cationic polypeptides activate innate immune sensors in APCs.

The subject of assay [2] is ER stress markers BiP, EIF2α, CHOP, XBP1 in bone marrow-derived macrophages. In words: ER stress markers (western blotting, XBP1 RT-qPCR). It is filed as cell-based, mouse. (Immunoblotting shows a protein as a band on a membrane.)
Protocol: M2 BMDMs (1.5×10^7 cells/100 mm^2 petri dish) or cancer cells (2×10^6 cells per 6-well plates) were treated with the experimental solutions. To evaluate inhibitory conditions, cells were pre-treated with CsA (10 μM, TCI America) for 3 h, or co-treated with 4-PBA (5 mM in phosphate-buffered saline [PBS], Tocris Bioscience, USA) and chloroquine (10 μg/mL, Alfa Aesar, USA). Each protein was extracted by using RIPA buffer containing 1% protease inhibitor and 1% phosphatase inhibitor cocktail. Protein concentrations were adjusted to 3 mg/mL by using a BCA kit, with FBS used as a standard. Electrophoresis was carried out by loading proteins (40 μg) into each lane of a sodium dodecyl sulfate-polyacrylamide gel (SDS-PAGE) gel, after which the proteins were transferred to a polyvinylidene fluoride membrane. After blocking, the PVDF membrane was treated with the corresponding primary antibody, and then washed with TBS-T three times before the treatment with the secondary antibody. The blot signals were visualized with a Chemidoc system (ChemiDoc MP imaging system, BioRad, USA).

Take tunicamycin: the “activation of MyD88 and STING in macrophages” value in assay [1] is “inhibited activation of MyD88 and STING in macrophages”. In addition, the “ER stress / ER stress markers” value in assay [2] is given as “detrimental levels”.

These data come from patent publication US20260284209A1, “POLYPEPTIDE ADJUVANTS AND USES THEREOF” (BOARD OF REGENTS, THE UNIVERSITY OF TEXAS SYSTEM, priority 2023, published 2026).
